Measured values: patent publication US20240287046A1, “COMPOUNDS AND RADIOLIGANDS FOR TARGETING NEUROTENSIN RECEPTOR AND USES THEREOF” (Full-Life Technologies HK Limited, priority 2022, published 2024)
Read-outs that look alike come from different tables or passages of the source.

Tests used:
[1] = molecular target: NTR1 (Homo sapiens (Human), UniProt P30989); conditions: cited from earlier work
[2] = molecular target: human NTSR-1 (Homo sapiens (Human), UniProt P30989); test: radioligand competitive binding assay using ^177Lu labeled C-1 as reference radioligand; conditions: for IC50: Nonlin fit, single assay, HT-29 cells
Method in brief: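 HT-29 cells expressing human NTSR-1 incubated with ¹⁷⁷Lu-C-1 (0.55 μCi/well) and test compound in RPMI-1640 + 0.25% BSA, 1 h at 37 °C (n=3). Unbound label removed by filtration, cell-bound radioactivity gamma-counted; IC50 from nonlinear regression of displacement.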

Sequence of human NTSR-1 (P30989 whole entry): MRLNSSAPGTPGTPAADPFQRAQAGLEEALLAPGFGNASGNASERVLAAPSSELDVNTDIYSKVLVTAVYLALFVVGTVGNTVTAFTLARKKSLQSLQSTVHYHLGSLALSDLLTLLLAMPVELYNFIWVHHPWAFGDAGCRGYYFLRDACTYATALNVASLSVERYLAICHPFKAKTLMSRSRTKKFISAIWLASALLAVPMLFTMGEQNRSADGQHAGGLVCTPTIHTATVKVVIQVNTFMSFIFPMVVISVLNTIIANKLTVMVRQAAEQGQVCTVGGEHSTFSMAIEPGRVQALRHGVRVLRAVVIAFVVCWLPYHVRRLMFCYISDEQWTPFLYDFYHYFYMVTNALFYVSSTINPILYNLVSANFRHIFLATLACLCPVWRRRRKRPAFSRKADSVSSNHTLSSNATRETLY
Sequence of NTR1 (P30989 whole entry, species assumed): as the sequence (P30989 whole entry) above

## COc1cccc(OC)c1-c1cc(C(=O)NC2(C(=O)O)C3CC4CC(C3)CC2C4)nn1-c1ccc(C(=O)N(C)CCCN(C)C)cc1C(C)C (stereo not shown) [Compound C-3, reference compound]
[1]
  binding affinity to NTR1 as an antagonist: high binding affinity
[2]; Mean IC50 of C-1/Mean IC50 of the test compound
  Relative Binding Affinity: 13.7
[2]; read-out: IC50 (nM) Mean
  IC50: 2.05 nM
[2]; read-out: LogIC50 Mean (converted)
  IC50: 2.05 nM
